Source: ChEMBL document CHEMBL6096661, “Synthesis, biological evaluation and mechanism study of a novel indole-pyridine chalcone derivative as antiproliferative agent against tumor cells through dual targeting tubulin and HK2” (Eur J Med Chem, 2025)
The source made the active and inactive calls. No cut-off for these calls is given here.

Legend:
MDA-MB-231 = experiment: Antiproliferative activity against human MDA-MB-231 cells assessed as reduction in cell proliferation incubated for 48 hrs by CCK-8 assay; type: functional, cell-based; conditions: MDA-MB-231, 48 h
[1] = target: T1, Hexokinase-2 (Homo sapiens) (UniProt P52789); experiment: Inhibition of human HK2 transfected in Escherichia coli BL21 (DE) incubated for 10 mins
T1 sequence (whole entry): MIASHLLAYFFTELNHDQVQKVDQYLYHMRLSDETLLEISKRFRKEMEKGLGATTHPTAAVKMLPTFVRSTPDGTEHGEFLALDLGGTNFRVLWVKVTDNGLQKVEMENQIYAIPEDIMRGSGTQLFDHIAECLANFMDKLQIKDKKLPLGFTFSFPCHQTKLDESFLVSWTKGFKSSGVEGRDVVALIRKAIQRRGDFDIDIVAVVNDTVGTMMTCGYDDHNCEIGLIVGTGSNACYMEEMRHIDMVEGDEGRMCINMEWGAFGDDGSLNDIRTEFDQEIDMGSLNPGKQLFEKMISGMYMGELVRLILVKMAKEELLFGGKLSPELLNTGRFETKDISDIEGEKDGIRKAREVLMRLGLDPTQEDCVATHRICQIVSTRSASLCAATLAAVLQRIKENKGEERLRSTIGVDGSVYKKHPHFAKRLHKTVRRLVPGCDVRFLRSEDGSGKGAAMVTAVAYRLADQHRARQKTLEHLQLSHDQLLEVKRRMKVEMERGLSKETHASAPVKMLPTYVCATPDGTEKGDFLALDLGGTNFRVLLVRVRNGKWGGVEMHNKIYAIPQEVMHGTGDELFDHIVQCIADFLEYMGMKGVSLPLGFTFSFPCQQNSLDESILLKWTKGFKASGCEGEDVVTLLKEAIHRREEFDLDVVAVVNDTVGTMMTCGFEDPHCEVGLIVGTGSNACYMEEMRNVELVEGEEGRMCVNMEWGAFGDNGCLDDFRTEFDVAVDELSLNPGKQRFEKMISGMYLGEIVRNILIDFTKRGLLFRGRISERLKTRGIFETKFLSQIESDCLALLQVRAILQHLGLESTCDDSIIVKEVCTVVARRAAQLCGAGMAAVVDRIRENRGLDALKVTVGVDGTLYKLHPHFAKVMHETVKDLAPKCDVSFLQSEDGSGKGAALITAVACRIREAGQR

HCT-116 = experiment: Antiproliferative activity against human HCT-116 cells assessed as inhibition of cell growth incubated for 48 hrs by CCK-8 assay; type: functional, cell-based; conditions: HCT-116, 48 h
SW480 = experiment: Antiproliferative activity against human SW480 cells assessed as inhibition of cell growth incubated for 48 hrs by CCK-8 assay; type: functional, cell-based; conditions: SW480, 48 h
LoVo = experiment: Antiproliferative activity against human LoVo cells assessed as inhibition of cell growth incubated for 48 hrs by CCK-8 assay; type: functional, cell-based
HT-1080 = experiment: Antiproliferative activity against human HT-1080 cells assessed as inhibition of cell growth incubated for 48 hrs by CCK-8 assay; type: functional, cell-based; conditions: HT-1080, 48 h

## C/C(=C\c1c[nH]c2ccc(N3CCOCC3)cc12)C(=O)c1cccnc1
MDA-MB-231
  IC50: 56.6 µM

## O=C(/C=C/c1cn(C(=O)c2ccccc2)c2ccc(N3CCOCC3)cc12)c1ccncc1
MDA-MB-231
  IC50: 7.7 µM

## O=[N+]([O-])c1ccc(S(=O)(=O)n2cc(C3CC(c4ccncc4)=NO3)c3cc(N4CCOCC4)ccc32)cc1 (centres undefined)
MDA-MB-231
  IC50: 150 µM

## O=C(/C=C/c1cn(S(=O)(=O)c2ccc([N+](=O)[O-])cc2)c2ccc(N3CCOCC3)cc12)c1ccc(N2CCCCC2)nc1
MDA-MB-231
  IC50: 151 µM

## Cc1ccc(S(=O)(=O)n2cc(/C=C/C(=O)c3ccncc3)c3cc(N4CCOCC4)ccc32)cc1
MDA-MB-231
  IC50: 3.51 µM

## COc1cc2c(c(OC)c1OC)-c1ccc(OC)c(=O)cc1[C@@H](NC(C)=O)CC2 [COLCHICINE]
MDA-MB-231
  IC50: 2.2 µM
[1]
  inhibition: inactive

## O=C(/C=C/c1cn(S(=O)(=O)c2ccc([N+](=O)[O-])cc2)c2ccc(N3CCOCC3)cc12)c1cncc2ccccc12
MDA-MB-231
  IC50: 8.7 µM

## Cc1ccc(C(=O)/C=C/c2cn(S(=O)(=O)c3ccc([N+](=O)[O-])cc3)c3ccc(N4CCOCC4)cc23)cn1
MDA-MB-231
  IC50: 6.25 µM

## O=C(/C=C/c1cn(S(=O)(=O)c2ccc([N+](=O)[O-])cc2)c2ccc(N3CCOCC3)cc12)c1nccs1
MDA-MB-231
  IC50: 8 µM

## Cc1[nH]c2ccc(N3CCOCC3)cc2c1/C=C/C(=O)c1cccnc1
MDA-MB-231
  IC50: 42.5 µM

## COc1ccc(C(=O)/C=C/c2cn(S(=O)(=O)c3ccc([N+](=O)[O-])cc3)c3ccc(N4CCOCC4)cc23)cn1
MDA-MB-231
  IC50: 73.9 µM

## Cc1ccc(S(=O)(=O)n2cc(C=O)c3cc(N4CCOCC4)ccc32)cc1
MDA-MB-231
  IC50: 15.9 µM

## O=C(/C=C/c1cn(S(=O)(=O)c2ccc([N+](=O)[O-])cc2)c2ccc(N3CCOCC3)cc12)c1cncnc1
MDA-MB-231
  IC50: 1.59 µM
HCT-116
  IC50: 1.57 µM
SW480
  IC50: 0.716 µM
LoVo
  IC50: 0.679 µM
HT-1080
  IC50: 0.469 µM

## O=C(/C=C/c1cn(Cc2ccccc2)c2ccc(N3CCOCC3)cc12)c1ccncc1
MDA-MB-231
  IC50: 148 µM

## COc1cc(C(=O)/C=C/c2cn(S(=O)(=O)c3ccc([N+](=O)[O-])cc3)c3ccc(N4CCOCC4)cc23)cc(OC)c1OC
MDA-MB-231
  IC50: 15.6 µM

## N#Cc1ccc(S(=O)(=O)n2cc(/C=C/C(=O)c3ccncc3)c3cc(N4CCOCC4)ccc32)cc1
MDA-MB-231
  IC50: 5.48 µM

## O=C(/C=C/c1cn(S(=O)(=O)c2ccc(Cl)cc2)c2ccc(N3CCOCC3)cc12)c1ccncc1
MDA-MB-231
  IC50: 7.19 µM

## CC(C)(C)c1ccc(S(=O)(=O)n2cc(/C=C/C(=O)c3ccncc3)c3cc(N4CCOCC4)ccc32)cc1
MDA-MB-231
  IC50: 7.98 µM

## O=C(/C=C/c1cn(S(=O)(=O)c2ccccc2)c2ccc(N3CCOCC3)cc12)c1ccncc1
MDA-MB-231
  IC50: 7.29 µM

## c1cncc(C2=NOC(c3c[nH]c4ccc(N5CCOCC5)cc34)C2)c1 (centres undefined)
MDA-MB-231
  IC50: 90.3 µM

## O=C(/C=C/c1cn(S(=O)(=O)c2ccc(Br)cc2)c2ccc(N3CCOCC3)cc12)c1ccncc1
MDA-MB-231
  IC50: 9.53 µM

## O=C(/C=C/c1cn(S(=O)(=O)c2ccc([N+](=O)[O-])cc2)c2ccc(N3CCOCC3)cc12)c1ccccc1
MDA-MB-231
  IC50: 23.9 µM

## c1cc(C2=NNC(c3c[nH]c4ccc(N5CCOCC5)cc34)C2)ccn1 (centres undefined)
MDA-MB-231
  IC50: 180 µM

## c1cc(C2=NOC(c3c[nH]c4ccc(N5CCOCC5)cc34)C2)ccn1 (centres undefined)
MDA-MB-231
  IC50: 200 µM

## COc1ccc(S(=O)(=O)n2cc(/C=C/C(=O)c3ccncc3)c3cc(N4CCOCC4)ccc32)cc1
MDA-MB-231
  IC50: 7.58 µM

## Cc1ccc(C(=O)/C=C/c2cn(S(=O)(=O)c3ccc([N+](=O)[O-])cc3)c3ccc(N4CCOCC4)cc23)c(C)n1
MDA-MB-231
  IC50: 1.07 µM
HCT-116
  IC50: 1.13 µM
SW480
  IC50: 0.655 µM
LoVo
  IC50: 0.221 µM
HT-1080
  IC50: 0.754 µM

## O=C(/C=C/c1cn(S(=O)(=O)c2ccc(C(F)(F)F)cc2)c2ccc(N3CCOCC3)cc12)c1ccncc1
MDA-MB-231
  IC50: 4.81 µM

## O=C(/C=C/c1cn(S(=O)(=O)c2cccc3ccccc23)c2ccc(N3CCOCC3)cc12)c1ccncc1
MDA-MB-231
  IC50: 45.4 µM

## COc1cc(C(=O)/C=C/c2cn(C(=O)c3cc(OC)c(OC)c(OC)c3)c3ccc(N4CCOCC4)cc23)cc(OC)c1OC
MDA-MB-231
  IC50: 13.8 µM

## CC(C)(C)OC(=O)n1cc(/C=C/C(=O)c2ccncc2)c2cc(N3CCOCC3)ccc21
MDA-MB-231
  IC50: 7.52 µM

## C/C(=C\c1cn(S(=O)(=O)c2ccc([N+](=O)[O-])cc2)c2ccc(N3CCOCC3)cc12)C(=O)c1cccnc1
MDA-MB-231
  IC50: 43.1 µM

## O=C(/C=C/c1cn(S(=O)(=O)c2ccc([N+](=O)[O-])cc2)c2ccc(N3CCOCC3)cc12)c1ccco1
MDA-MB-231
  IC50: 27.1 µM

## COc1cc(C(=O)/C=C/c2cn(C)c3ccc(N4CCOCC4)cc23)cc(OC)c1OC
MDA-MB-231
  IC50: 12.1 µM

## COc1cc(C(=O)/C=C/c2c[nH]c3ccc(N4CCOCC4)cc23)cc(OC)c1OC
MDA-MB-231
  IC50: 11.2 µM

## O=C(/C=C/c1cn(S(=O)(=O)c2ccc([N+](=O)[O-])cc2)c2ccc(N3CCOCC3)cc12)c1ncccn1
MDA-MB-231
  IC50: 1.81 µM
HCT-116
  IC50: 3.46 µM
SW480
  IC50: 2.03 µM
LoVo
  IC50: 1.3 µM
HT-1080
  IC50: 1.19 µM

## O=C(/C=C/c1cn(S(=O)(=O)c2ccc(I)cc2)c2ccc(N3CCOCC3)cc12)c1ccncc1
MDA-MB-231
  IC50: 20.5 µM

## COc1cc(C(=O)/C=C/c2cn(CO)c3ccc(N4CCOCC4)cc23)cc(OC)c1OC
MDA-MB-231
  IC50: 12.5 µM

## O=C(/C=C/c1cn(S(=O)(=O)c2ccc([N+](=O)[O-])cc2)c2ccc(N3CCSCC3)cc12)c1cccnc1
MDA-MB-231
  IC50: 3.94 µM

## CC(=O)n1cc(/C=C/C(=O)c2ccncc2)c2cc(N3CCOCC3)ccc21
MDA-MB-231
  IC50: 7.77 µM

## O=C(/C=C/c1cn(S(=O)(=O)c2cccnc2)c2ccc(N3CCOCC3)cc12)c1ccncc1
MDA-MB-231
  IC50: 2.89 µM

## O=C(/C=C/c1cn(S(=O)(=O)c2cccs2)c2ccc(N3CCOCC3)cc12)c1ccncc1
MDA-MB-231
  IC50: 7.53 µM

## Cc1ccc(S(=O)(=O)n2cc(/C=C/C(=O)c3ccncc3)c3ccccc32)cc1
MDA-MB-231
  IC50: 8.49 µM

## O=C(/C=C/c1cn(S(=O)(=O)c2ccc([N+](=O)[O-])cc2)c2ccc(N3CCCCC3)cc12)c1cccnc1
MDA-MB-231
  IC50: 0.816 µM
HCT-116
  IC50: 3.19 µM
SW480
  IC50: 0.999 µM
LoVo
  IC50: 0.765 µM
HT-1080
  IC50: 0.751 µM

## O=C(/C=C/c1cn(S(=O)(=O)Cc2ccccc2)c2ccc(N3CCOCC3)cc12)c1ccncc1
MDA-MB-231
  IC50: 2.5 µM

## O=C(/C=C/c1cn(S(=O)(=O)c2ccc([N+](=O)[O-])cc2)c2ccc(N3CCOCC3)cc12)c1cnc2ccccc2c1
MDA-MB-231
  IC50: 104 µM

## O=C(/C=C/c1cn(S(=O)(=O)c2ccc(F)cc2)c2ccc(N3CCOCC3)cc12)c1ccncc1
MDA-MB-231
  IC50: 5.48 µM

## COc1ccc(C(=O)/C=C/c2cn(S(=O)(=O)c3ccc([N+](=O)[O-])cc3)c3ccc(N4CCOCC4)cc23)c(OC)n1
MDA-MB-231
  IC50: 416 µM

## O=Cc1c[nH]c2ccc(N3CCOCC3)cc12
MDA-MB-231
  IC50: 88.6 µM

## O=C(/C=C/c1cn(S(=O)(=O)c2ccc([N+](=O)[O-])cc2)c2ccc(N3CCOCC3)cc12)c1ccccn1
MDA-MB-231
  IC50: 0.915 µM
HCT-116
  IC50: 1.04 µM
SW480
  IC50: 1.08 µM
LoVo
  IC50: 0.74 µM
HT-1080
  IC50: 0.793 µM

## COc1ccc2c(c1)c(/C=C/C(=O)c1ccncc1)cn2S(=O)(=O)c1ccc(C)cc1
MDA-MB-231
  IC50: 3.81 µM

## O=C(/C=C/c1cn(S(=O)(=O)c2ccc([N+](=O)[O-])cc2)c2ccc(N3CCOCC3)cc12)c1ccncc1
MDA-MB-231
  IC50: 1.53 µM
HCT-116
  IC50: 1.85 µM
SW480
  IC50: 1.08 µM
LoVo
  IC50: 0.392 µM
HT-1080
  IC50: 0.681 µM

## O=C(/C=C/c1cn(S(=O)(=O)c2ccc3ccccc3c2)c2ccc(N3CCOCC3)cc12)c1ccncc1
MDA-MB-231
  IC50: 12.8 µM

## COc1cc(C(=O)/C=C/c2cn(S(=O)(=O)c3ccc(C)cc3)c3ccc(N4CCOCC4)cc23)cc(OC)c1OC
MDA-MB-231
  IC50: 19.9 µM

## O=C(/C=C/c1c[nH]c2ccc(N3CCOCC3)cc12)c1ccncc1
MDA-MB-231
  IC50: 39.3 µM

## O=C(/C=C/c1cn(S(=O)(=O)c2ccc([N+](=O)[O-])cc2)c2cc(N3CCOCC3)ccc12)c1cccnc1
MDA-MB-231
  IC50: 0.857 µM
HCT-116
  IC50: 1.7 µM
SW480
  IC50: 0.718 µM
LoVo
  IC50: 0.792 µM
HT-1080
  IC50: 0.773 µM
